Laboratory results published in patent publication US20250134844A1, “THERAPEUTIC USE OF PLEUROMUTILINS” (Nabriva Therapeutics GmbH, priority 2022, published 2025).
≈ marks a conversion by molar mass, not a printed value. Where two headings read alike, the source gives them in different places.

What was measured:
[1] = test system: Borreliella spp.; assay: MIC by broth microdilution against Borreliella isolates; type: cell-based; conditions: range over 6 isolates (5 B. burgdorferi, 1 B. garinii)
Experimental: Minimal inhibitory concentrations (MIC) were determined against five (n=5) Borreliella burgdorferi isolates (ATCC 51990, 55131, 35211, 35210, 53899) and one (n=1) Borreliella garinii isolate (ATCC 51991) by broth microdilution technique (Dever, L. L., Jorgensen, J. H., Barbour, A. G. In vitro antimicrobial susceptibility testing of Boreliella burgdorferi: a microdilution MIC method and time-kill studies. J Clin Microbiol. 30(10), 2692-2697. (1992) doi: 10.1128/jcm.30.10.2692-2697.1992; Feng, J., Wang, T., Shi, W., et al. Identification of novel activity against Boreliella burgdorferi persisters using an FDA approved drug library. Emerg Microb Infect 3, e49 (2014) doi: 10.1038/emi.2014.53). The general procedures for broth microdilution were done according to the CLSI guidelines M7 and M100-S31 (CLSI. (2018) Methods for dilution antimicrobial susceptibility tests for bacteria that grow aerobically; Eleventh edition. M07.; CLSI. (2021) Performance Standards for Antimicrobial Susceptibility Testing; Thirty-first Edition. M100-S31).
Briefly, Borreliella spp. were grown at 36° C. under microaerophilic conditions in BSK II medium until the logarithmic or stationary growth phase was reached. The growth phase was determined by semiquantitative measurement of active and dormant cells by fluorescence microscopy of cells stained with the fluorescent dyes SYBR Green I and propidium iodide. An inoculum of 10^5−10^6 spirochetes/mL was used to inoculate broth microdilution plates containing serially 2-fold diluted test compounds.

[2] = test system: T. pallidum Chicago strain; assay: In vitro susceptibility in co-culture with rabbit Sf1Ep cells, qPCR of tp0574 gene; type: cell-based, Treponema pallidum
Experimental: (§1) The in vitro susceptibility determination essentially followed the protocol described by Edmondson et al. (Edmondson, D. G., Hu, B., Norris, S. J. Long-Term In Vitro Culture of the Syphilis Spirochete Treponema pallidum subsp. pallidum. mBio 9(3) e01153-18. (2018). doi: 10.1128/mBio.01153-18).
(§2) Briefly, 3×10^3 rabbit Sf1Ep cells seeded in 96-well microtiter plates in 150 μl of culture media, were inoculated with the T. pallidum strains Chicago and SS14 at an inoculum of 3×10^3 (counted using dark field microscopy) in TpCM-2 medium that was equilibrated overnight at 34° C. in a microaerophilic environment consisting of 1.5% O2, 3.5% CO2 and 95% N2 supplied as a tri-gas mix. Lefamulin and penicillin G were added from 100-fold concentrated stocks in water to achieve the final test concentrations of 5, 2.5, 0.5, 0.1, 0.02. 0.01. 0.005, and 0.0025 μg/ml for Lefamulin and 60 ng/ml for penicillin G. Then the culture plates were incubated at 34° C. in a tri-gas incubator. Cells were then lysed and the DNA extracted using a Quick DNA-96 kit followed by the quantification of the treponemes by quantitative real-time PCR in triplicate targeting the tp0574 gene (Giacani L, Molini B, Godornes C, Barrett L, Van Voorhis WC, Centurion-Lara A, et al. Quantitative analysis of tpr gene expression in Treponema pallidum isolates: differences among isolates and correlation with T-cell responsiveness in experimental syphilis. Infect Immun. 75(1), 104-12 (2007). doi: 10.1128/IAI.01124-06).

[3] = test system: T. pallidum SS14 strain; assay: as above; type: cell-based, Treponema pallidum
Experimental: as §1, §2

[4] = test system: T. pallidum cells (Chicago strain); assay: Rabbit model of intradermal Treponema pallidum infection (syphilis); type: in vivo; conditions: for lesion progression past the initial state of mild induration: 40 days observation; for T. pallidum mRNA (tp0574 message normalized to HPRT) in lesion biopsies: day 3 post-treatment initiation; for T. pallidum cells in lesion aspirates by DFM: since day 3 post-treatment initiation
Experimental: The preclinical study to test Lefamulin against T. pallidum was conducted in analogy to an investigation of the antibiotic compound linezolid (Haynes, A. M., Giacani, L., Vall Mayans, M., et al. Efficacy of linezolid on Treponema pallidum, the syphilis agent: A preclinical study. eBioMedicine 65, 103281 (2021). doi: 10.1016/j.ebiom.2021.103281).
In the syphilis infection model, each animal was infected intradermally (ID) with 10^6 freshly harvested, viable and infectious T. pallidum cells (Chicago strain) per site of infection on 10 sites on their shaved backs to induce appearance of primary syphilis lesions. Treponemal viability prior to ID infection was assessed by dark field microscopy (DFM). A dose of infectious treponemes (10^6/site of infection) induces the appearance of an erythematous lesion at the inoculation site within ˜5 days post-inoculation. Overall, the arch of lesion progression from the erythematous stage to the indurated, ulcerated, and healed stages encompasses approximately 4 weeks.
Herein, three groups of three rabbits were infected. Three animals were treated orally with 70 mg/kg Lefamulin every 12 h for 3 days (day 7 to day 10 post-infection). As positive control group, another three animals were treated with Benzathine penicillin G (BPG) as single intramuscular (IM) injection (300,000 units; equivalent w/w to 4.8 million units for humans). One group (n=3) served as untreated control. The cutaneous lesions were monitored macroscopically for clinical development, documented by photography on regular basis and measured for their diameter every day for a period of 40 days.
Treponemal burden within these lesions was assessed by taking needle aspirates from the lesions and analyzing the aspirates for pathogen cell count using DFM as well as quantification of treponemal DNA extracted from the aspirates at day 3, 8, 12, and 16 Additionally, mRNA extracted from lesion biopsies obtained post-treatment initiation was also quantified as a surrogate of viability. The gene copy number of the T. pallidum tp0574 gene was quantified by qPCR. Additionally, the tp0574 gene message was normalized to the message of the rabbit housekeeping gene HPRT to evaluate the burden of viable T. pallidum cells within lesion biopsies.

[5] = test system: T. pallidum; assay: Rabbit infectivity test (RIT) with popliteal lymph nodes; type: in vivo; conditions: for orchitis or seroconversion (VDRL, TPPA) of RIT rabbits: 3-months observation period, lymph nodes from treated test rabbits; for seroconversion in FTA-ABS test: RIT rabbits, control animals 3+ reactivity or higher
Source text: The test rabbits from Example 3 were used for a subsequent study in a RIT, wherein samples from the popliteal lymph nodes were transferred to new (naïve) rabbits, which were subsequently analyzed for disease symptoms and tested serologically (Haynes, A. M., Giacani, L., Vall Mayans, M., et al. Efficacy of linezolid on Treponema pallidum, the syphilis agent: A preclinical study. eBioMedicine 65, 103281 (2021). Doi: 10.1016/j.ebiom.2021.103281).
Following euthanasia, popliteal lymph nodes (LN) from all the rabbits in the Lefamulin, BPG, and control groups were harvested. Lymph nodes from each rabbit were pooled and homogenized in a solution containing equal amounts of sterile saline and serum from an uninfected rabbit. One milliliter of homogenate from each test rabbit was then inoculated into the left testicle of a naïve rabbit to perform the RIT. For the rabbit, which died at day 3 post-treatment initiation, lymph nodes were harvested and transferred to a RIT rabbit within 1 hour after the animal's death.
Inoculated animals were checked for orchitis twice weekly. Serum was collected monthly for three months and analyzed with two different serological tests, i.e. VDRL (Venereal Disease Research Laboratory; Becton-Dickinson, Franklin Lanes, NJ) and TPPA (Treponema pallidum Particle Agglutination; Fujirebio, Malvern, PA). Also an FTA-ABS test (Fluorescent Treponemal Antibody-Absorption; Trinity Biotech, Jamestown, NY) was performed.

[6] = 192 h, stationary growth phase cultures, read after 8 days, read-out: MIC (μg/mL) for Stationary Growth Phase Culture (n = 6)
[7] = logarithmic growth phase cultures, read after 5 or 6 days, read-out: MIC (μg/mL) for Logarithmic Growth Phase Culture (n = 6)

CO/N=C(\C(=O)N[C@@H]1C(=O)N2C(C(=O)O)=C(COC(N)=O)CS[C@H]12)c1ccco1 [Cefuroxime]
MIC [1, 6]: 0.016 to 0.25 µg/mL (≈ 0.0377 to 0.589 µM)
MIC [1, 7]: 0.016 to 0.25 µg/mL (≈ 0.0377 to 0.589 µM)

CC1(C)S[C@@H]2[C@H](NC(=O)Cc3ccccc3)C(=O)N2[C@H]1C(=O)O [penicillin G]
copy number of tp0574 gene ([2]; Chicago strain, penicillin G 60 ng/mL): 247 copies/μL
copy number of tp0574 gene ([3]; SS14 strain, penicillin G 60 ng/mL): 91 copies/μL

CC1(C)S[C@@H]2[C@H](NC(=O)Cc3ccccc3)C(=O)N2[C@H]1C(=O)O.CC1(C)S[C@@H]2[C@H](NC(=O)Cc3ccccc3)C(=O)N2[C@H]1C(=O)O.c1ccc(CNCCNCc2ccccc2)cc1 [BPG, Benzathine penicillin G]
lesion progression past the initial state of mild induration [4]: None of the lesions in these two groups progressed past the initial state of mild induration
T. pallidum mRNA (tp0574 message normalized to HPRT) in lesion biopsies [4]: absent
measured sites resolved ([4]; day 9 post-BPG administration): 95%
measured sites resolved ([4]; day 12 post-treatment): 100%
T. pallidum cells in lesion aspirates by DFM [4]: no treponemal bacteria could be found
orchitis or seroconversion (VDRL, TPPA) of RIT rabbits [5]: None of the animals developed orchitis or seroconverted
seroconversion in FTA-ABS test [5]: none of the BGP or Lefamulin treated animals seroconverted

CC[C@H]1OC(=O)[C@H](C)[C@@H](O[C@H]2C[C@@](C)(OC)[C@@H](O)[C@H](C)O2)[C@H](C)[C@@H](O[C@@H]2O[C@H](C)C[C@H](N(C)C)[C@H]2O)[C@](C)(O)C[C@@H](C)CN(C)[C@H](C)[C@@H](O)[C@]1(C)O [Azithromycin]
MIC [1, 6]: 0.001 to 0.004 µg/mL (≈ 0.00134 to 0.00534 µM)
MIC [1, 7]: 0.001 to 0.004 µg/mL (≈ 0.00134 to 0.00534 µM)

C[C@H]1c2cccc(O)c2C(=O)C2=C(O)[C@]3(O)C(=O)C(C(N)=O)=C(O)[C@@H](N(C)C)[C@@H]3[C@@H](O)[C@@H]21 [Doxycycline]
MIC [1, 6]: 0.03 to 0.5 µg/mL (≈ 0.0675 to 1.13 µM)
MIC [1, 7]: 0.03 to 0.5 µg/mL (≈ 0.0675 to 1.13 µM)

CO/N=C(\C(=O)N[C@@H]1C(=O)N2C(C(=O)O)=C(CSc3nc(=O)c(=O)[nH]n3C)CS[C@H]12)c1csc(N)n1 [Ceftriaxone]
MIC [1, 6]: 0.004 to 0.03 µg/mL (≈ 0.00721 to 0.0541 µM)
MIC [1, 7]: 0.004 to 0.016 µg/mL (≈ 0.00721 to 0.0289 µM)

C=C[C@]1(C)C[C@@H](OC(=O)CO)[C@]2(C)[C@H](C)CC[C@]3(CCC(=O)[C@H]32)[C@@H](C)[C@@H]1O [Pleuromutilin]
MIC [1, 6]: 0.12 to 2 µg/mL (≈ 0.317 to 5.28 µM)
MIC [1, 7]: 0.12 to 1 µg/mL (≈ 0.317 to 2.64 µM)

C[C@H]1COc2c(N3CCN(C)CC3)c(F)cc3c(=O)c(C(=O)O)cn1c23 [Levofloxacin]
MIC [1, 6]: 2 to 8 µg/mL (≈ 5.53 to 22.1 µM)
MIC [1, 7]: 2 to 4 µg/mL (≈ 5.53 to 11.1 µM)

CC1(C)S[C@@H]2[C@H](NC(=O)[C@H](N)c3ccc(O)cc3)C(=O)N2[C@H]1C(=O)O [Amoxicillin]
MIC [1, 6]: 0.03 to 0.12 µg/mL (≈ 0.0821 to 0.328 µM)
MIC [1, 7]: 0.03 to 0.12 µg/mL (≈ 0.0821 to 0.328 µM)

C=C[C@]1(C)C[C@@H](OC(=O)CSCCN(CC)CC)[C@]2(C)[C@H](C)CC[C@]3(CCC(=O)[C@H]32)[C@@H](C)[C@@H]1O [Tiamulin]
MIC [1, 6]: 0.03 to 0.25 µg/mL (≈ 0.0608 to 0.506 µM)
MIC [1, 7]: 0.03 to 0.5 µg/mL (≈ 0.0608 to 1.01 µM)

C=C[C@]1(C)C[C@@H](OC(=O)CS[C@@H]2CC[C@@H](N)C[C@H]2O)[C@]2(C)[C@H](C)CC[C@]3(CCC(=O)[C@H]32)[C@@H](C)[C@@H]1O [Lefamulin, 14-O-{[(1R, 2R, 4R)-4-amino-2-hydroxy-cyclohexylsulfanyl]-acetyl}-mutilin]
MIC [1, 6]: 0.001 to 0.008 µg/mL (≈ 0.00197 to 0.0158 µM)
MIC [1, 7]: 0.001 to 0.008 µg/mL (≈ 0.00197 to 0.0158 µM)
mean copy number of tp0574 gene ([2]; Chicago strain, at ≥10 ng/ml Lefamulin, day 7, untreated control 13,052 copies/μL): 324-403 copies/μL
MIC ([2]; Treponema pallidum, 168 h, T. pallidum Chicago strain, day 7, read-out: minimal inhibitory concentration (MIC)): ≥ 0.01 µg/mL
mean copy number of tp0574 gene ([3]; SS14 strain, at ≥10 ng/mL Lefamulin, day 7, untreated control 894 copies/μL): 33-124 copies/μL
inhibiting Lefamulin concentration ([3]; T. pallidum SS14 strain, inhibited at 10-20 ng/mL or higher): 10 to 20 ng/mL
death in treated group ([4]; 70 mg/kg orally every 12 h, day 3 of treatment, most likely inhalation of Lefamulin caused by reflux): one rabbit died
lesion progression past the initial state of mild induration [4]: None of the lesions in these two groups progressed past the initial state of mild induration
T. pallidum mRNA (tp0574 message normalized to HPRT) in lesion biopsies [4]: absent
lesions still measurable ([4]; day 9 post-treatment initiation): 14%
lesion diameter compared to the untreated controls ([4]; day 10 post-infection, end of treatment, p<0.05): significantly lower
day post-treatment initiation by which no induration could be measured at any site ([4]; post-treatment initiation): ≤ 13 days
T. pallidum cells in lesion aspirates by DFM [4]: no treponemal bacteria could be found
orchitis or seroconversion (VDRL, TPPA) of RIT rabbits [5]: None of the animals developed orchitis or seroconverted
seroconversion in FTA-ABS test [5]: none of the BGP or Lefamulin treated animals seroconverted

CC[C@H]1OC(=O)[C@H](C)[C@@H](O[C@H]2C[C@@](C)(OC)[C@@H](O)[C@H](C)O2)[C@H](C)[C@@H](O[C@@H]2O[C@H](C)C[C@H](N(C)C)[C@H]2O)[C@](C)(O)C[C@@H](C)C(=O)[C@H](C)[C@@H](O)[C@]1(C)O [Erythromycin]
MIC [1, 6]: 0.001 to 0.004 µg/mL (≈ 0.00136 to 0.00545 µM)
MIC [1, 7]: 0.002 to 0.016 µg/mL (≈ 0.00273 to 0.0218 µM)
